Key:
[1] = system: SKOV3 (Ovarian adenocarcinoma); assay: In vitro cytotoxicity, microculture tetrazolium (MTT) assay, SKOV3; type: cell-based, human; conditions: SKOV3; read-out: IC50
Experimental: (§1) In Vitro Cytotoxicity--Microculture Tetrazolium Assay
(§2) The microculture tetrazolium assay was used to test in vitro cytotoxicity. This assay is described in Plumb, J. A. et al., 1989 Cancer Research 49, 4435-4440, which is herein incorporated by reference. The cytotoxicity of compounds towards tumor cells is measured in vitro using the assay. This assay method is based upon the ability of live, but not dead cells to reduce the yellow water soluble dye 3-(4;5-dimethylthiazol-2-yl)-2,5-diphenyltetrazolium bromide (MTT) to its water insoluble purple formazan product.
(§3) Human Tumor Cell lines, used were:
SKOV3 (Ovarian adenocarcinoma)--provided by Dr. V. Ling,
(§4) The cells were maintained in exponential growth in culture in minimal essential media (MEM) supplemented with non-essential amino acids, and containing 15% (v/v) fetal bovine serum, 5 mM L-glutamine, 1 mM sodium pyruvate, and 0.1 U/ml insulin. All cell lines were grown at 37° C. in an atmosphere of 5% CO2 in air.
(§5) Test compounds: 20 mM in DMSO and diluted to a final concentration of 200 μM in culture medium before use.
(§6) The following is the generic description of the assay method. It should be noted that although the conditions described work well with the cells listed above, the initial plating density and the MTT concentration used should be verified for each new cell line used to test compounds.
(§7) For each assay, doxorubicin is included as an inter-assay standard. This allows us to monitor the behaviour of the assay in general, and in particular, to check that the SKVLB line has maintained its resistant phenotype.
(§8) The plate layout is done in the following manner: The assays are carried out in 96-well (8 well×12 well) microtiter plates. Serial dilutions of the compound are tested along the length of the plate. A 1:3 serial dilution of compound in culture medium covers a concentration range from 100 μM to 1.7 nM. Each concentration of compound is tested in quadruplet, allowing two compounds to be tested per plate. Wells containing no cells (blank) and cells with no test compound (control) are included on each plate.
(§9) Cells are plated out in 100 μl of culture medium in the microtiter plates at a density of around 1,500-4,000 cells per well. The plates are incubated overnight to allow the cells to become adherent after which the test compound is added (100 μl of appropriate dilution per well). The cells are incubated with test compound at 37° C. for 48 h after which the compound is replaced with fresh medium. After a further 48 h incubation at 37° C., 50 μl of MTT solution (2 mg/ml) is added to each well. The plates are incubated in the dark for 4 h at 37° C. after which the medium is removed. The MTT formazan product is extracted from the cells by the addition of 200 μl DMSO followed by 50 μl of Sorensen's buffer. The plates are shaken briefly and the absorbance at 570 nm is read using a Molecular Devices UV max plate reader. Curves are fit to the MTT assay data using a four parameter logistic equation, and the data are normalized to fit a 0% to 100% survival scale.

[2] = system: SKVLB (Ovarian; multidrug resistant); assay: In vitro cytotoxicity, microculture tetrazolium (MTT) assay, SKVLB; type: cell-based, human; conditions: for IC50: SKVLB, multidrug resistant, read-out: IC50; for VLB/OV3: ratio SKVLB / SKOV3
Outline: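 Multidrug-resistant ovarian SKVLB cells exposed 48 h at 37 °C to 1:3 serial dilutions (100 μM–1.7 nM), then 48 h in fresh medium. MTT reduction read at 570 nm after DMSO extraction; four-parameter logistic fit normalized to 0–100% survival.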

[3] = system: T47D (Ductal carcinoma of breast); assay: In vitro cytotoxicity, microculture tetrazolium (MTT) assay, T47D; type: cell-based, human; conditions: read-out: IC50
Experimental: as §1, §2, §3
T47D (Ductal carcinoma of breast)--ATCC catalog #HTB-133.
as §4, §5, §6, §7, §8, §9

Lox (Melanoma) = assay: In vitro cytotoxicity, microculture tetrazolium (MTT) assay, Lox; type: cell-based, human; conditions: read-out: IC50
Experimental: as §1, §2, §3
Lox (Melanoma)--Southern Research Institute.
as §4, §5, §6, §7, §8, §9

[4] = system: HT 29 (Colon adenocarcinoma); assay: In vitro cytotoxicity, microculture tetrazolium (MTT) assay, HT 29; type: cell-based, human; conditions: HT29; read-out: IC50
Experimental: as §1, §2, §3
HT 29 (Colon adenocarcinoma) ATCC catalog #HTB-38.
as §4, §5, §6, §7, §8, §9

MCF-7 = assay: In vitro antitumor activity, MCF-7; type: cell-based
Experimental: as §2, §8
(§10) Cells are plated out in 100 μl of culture medium in the microtiter plates at a density of around 1,500-4,000 cells per well. […] The plates are shaken briefly and the absorbance at 570 nm is read using a Molecular Devices UV max plate reader. […]

MCF-7/ADR = assay: In vitro antitumor activity, MCF-7/ADR (adriamycin resistant); type: cell-based
Experimental: as §2, §8, §10

MAT-B = assay: In vitro antitumor activity, MAT-B; type: cell-based
Experimental: as §2, §8, §10

MAT-B/ADR = assay: In vitro antitumor activity, MAT-B/ADR; type: cell-based
Experimental: as §2, §8, §10

[5] = literature; cited from earlier work
[6] = Med. Res. Rev. 1981; cited from earlier work
[7] = Med. Res. Rev. 1981; cited from earlier work; remark: listed apart in the source

| Compound | IC50 [1] [µM] | IC50 [2] [µM] | VLB/OV3 [2] | IC50 [3] [µM] | IC50 (Lox (Melanoma)) [µM] | IC50 [4] [µM] | antitumor activity [5] | antibacterial activity [6] | antifungal activity [7] | also measured |
| --- | --- | --- | --- | --- | --- | --- | --- | --- | --- | --- |
| CC(=O)[C@H]1CC2=C(C(=O)c3ccccc3C2=O)[C@H](OC2C[C@H](NC(=O)C(F)(F)F)[C@H](O)[C@H](C)O2)O1 (stereo partly drawn) [BCH1146, (1'S,1S,3R)-Methyl (5,10-dioxo-1-(2',3',6'-trideoxy-3'-trifluoroacetamido-4'-hydroxy-L-lyxohexopyranose)-3,4,5,10-tetrahydronaphtho [2,3-C]pyran-3-yl) ketone] | 0.891 | 6.97 | 7.82 | 5.87 | 3.82 | 0.91 |  |  |  | IC50 (MCF-7): 0.044 µM; potency in breast cancer, MCF-7, against adriamycin (MCF-7; breast cancer): less potent than adriamycin; IC50 (MCF-7/ADR; MCF-7/ADR): 0.19 µM; effectiveness in the sensitive and adriamycin resistant cell line (MCF-7/ADR; MCF-7 sensitive vs adriamycin resistant): nearly as effective in the sensitive and adriamycin resistant cell line; IC50 (MAT-B): 0.46 µM; IC50 (MAT-B/ADR): 0.56 µM |
| COC(=O)C1CC2=C(C(=O)c3c(cc4ccccc4c3O)C2=O)[C@@H](O[C@H]2C[C@H](NC(=O)C(F)(F)F)[C@H](O)[C@H](C)O2)O1 (stereo partly drawn) [pyranoanthraquinone (H)] |  |  |  |  |  |  | possess antitumor activity |  |  |  |
| C[C@@H]1O[C@@H](CC(=O)O)CC2=C1C(=O)c1c(O)cccc1C2=O [nanaomycin A] |  |  |  |  |  |  |  | potent antibacterial | antifungal activity |  |
| CC1O[C@H]2CC(=O)O[C@H]2C2=C1C(=O)c1c(O)c3c(c(O)c1C2=O)[C@H]1C[C@@H](O)[C@]3(O)[C@@H](C)O1 (stereo partly drawn) [Granaticin] |  |  |  |  |  |  | show antitumor activity |  |  |  |
| C[C@H]1O[C@@H]2CC(=O)O[C@@H]2C2=C1C(=O)c1c(O)cccc1C2=O [kalafungin] |  |  |  |  |  |  |  | potent antibacterial | antifungal activity |  |
| CC(=O)[C@H]1CC2=C(C(=O)c3ccccc3C2=O)[C@H](O[C@H]2C[C@H](NC(=O)C(F)(F)F)[C@H](OC(=O)CBr)[C@H](C)O2)O1 [BCH2105, (1'-S,1-S,3-R)-methyl-(1-[2',3',4',6' tetradeoxy-3'-trifluoroacetamido-4'-O-(2-bromo-acetyl)-L-lyxopyranose]-5,10-dioxo-3,4,5,10 tetrahydronaphtho-[2,3-c]pyran-3-yl) ketone] | 0.003 | 0.37 | 123 | 0.019 | 0.025 | 0.0069 |  |  |  |  |

From US5736523A, “Antineoplastic heteronapthoquinones” (Biochem Pharma Inc., priority 1995, dated 1998)
